Laboratory results from patent US20240130994A1, “IONIC LIQUID FORMULATIONS FOR TREATING DIABETES” (i2O Therapeutics, Inc., priority 2020, published 2024).

How the values were obtained:
[1] = test system: non-diabetic male Wistar rats; experiment: Blood glucose levels after intrajejunal injection in fasted non-diabetic rats; format: in vivo, rat; conditions: 38 μL dose (acid content of 50 μL ionic liquid)
Method: About 250 μL of blood was collected at regular intervals in order to determine the blood glucose level. The obtained values, plotted as mean percent change±standard error in blood glucose levels with respect to initial reading (n=3) versus time, are shown in FIG. 7.
About 250 μL of blood was collected at regular intervals in order to determine the blood glucose level. The obtained values, plotted as mean percent change±standard error in blood glucose levels with respect to initial reading (n=3) versus time, are shown in FIG. 8.
The obtained values, plotted as mean percent change±standard error in blood glucose levels with respect to initial reading (n=4) versus time, are shown in FIG. 9.

[2] = Physical form of choline-based ionic liquids at room temperature; format: physicochemical
Method: Several ionic liquids comprising choline as a cation and various anions were synthesized. […] For anions not miscible with the aqueous choline bicarbonate solution, a co-solvent, such as ethanol, was added until a homogenous mixture formed. The mixture was stirred at room temperature until CO2 evolution ceased. Solvent was removed by rotary evaporation at 60° C. for 20 minutes, and each product was dried in a vacuum oven for 48 hours at 60° C.

[3] = cation:anion 1:1, room temperature
[4] = cation:anion 1:2, room temperature
[5] = cation:anion 2:1, room temperature

Compound	Physical Form (Ratios Listed as Cation:Anion) [2, 3]	Physical Form (Ratios Listed as Cation:Anion) [2, 4]	Physical Form (Ratios Listed as Cation:Anion) [2, 5]	other results
CC(C)=CCCC(C)CC(=O)O (stereo not drawn) [citronellic acid alone, citronellic acid, reference compound]	–	–	–	blood glucose levels, % of starting levels [1]: about 30%
CCC(C)CCC(=O)O (stereo not drawn) [4-Methylhexanoic Acid]	Liquid at 1:1, 1:2	Liquid at 1:1, 1:2	–	–
O=C(O)C(O)c1ccccc1 (stereo not drawn) [Mandelic Acid]	Liquid at 1:1, 1:2	Liquid at 1:1, 1:2	–	–
CCCCCCCC/C=C\CCCCCCCC(=O)O [Oleic Acid]	Solid at 1:1, 1:2	Solid at 1:1, 1:2	–	–
CC(C)CCCC(C)CC(=O)O (stereo not drawn) [3,7-Dimethyloctanoic Acid]	Solid at 1:1, 1:2	Solid at 1:1, 1:2	–	–
O=C(O)[C@H](O)[C@@H](O)[C@@H](O)[C@H](O)CO [D-(+)-Galactonic Acid]	Solid at 1:1	–	–	–
CCCCCCCCC(=O)O [Nonanoic Acid]	Solid at 1:1, 1:2	Solid at 1:1, 1:2	–	–
C=C(C)[C@@H]1CC=C(C(=O)O)CC1 [Perillic Acid]	Solid at 1:1	–	–	–
Dihydrobenzoic Acid	Solid at 1:1	–	–	–
CCCCCCCCCCC(=O)O [Undecanoic Acid]	Solid at 1:1	–	–	–
COc1cc(C(=O)O)ccc1O [Vanillic Acid]	Solid at 1:1	–	–	–
CCCCCCC/C=C/C(=O)O [Trans-2-Decenoic Acid]	Solid at 1:1, 1:2	Solid at 1:1, 1:2	–	–
CC/C=C\C/C=C\C/C=C\C/C=C\C/C=C\CCCC(=O)O [Eicosapentanoic Acid (EPA)]	Solid at 1:1	–	–	–
CC(=O)O [Acetic Acid]	Liquid at 2:1, 1:1, 1:2	Liquid at 2:1, 1:1, 1:2	Liquid at 2:1, 1:1, 1:2	–
O=C(O)/C=C/C(=O)O [Fumaric Acid]	Solid	–	Liquid	–
O=C(O)CC(O)C(=O)O (stereo not drawn) [Malic Acid]	Liquid at 2:1, 1:1	–	Liquid at 2:1, 1:1	–
O=C(O)/C=C\C(=O)O [Maleic Acid]	Liquid at 2:1, 1:1	–	Liquid at 2:1, 1:1	–
CCCCC/C=C\C/C=C\C/C=C\C/C=C\CCCC(=O)O [Arachidonic Acid]	Solid at 1:1	–	–	–
O=C(O)CC(O)(CC(=O)O)C(=O)O [Citric Acid]	Solid	–	Liquid	Physical Form (Ratios Listed as Cation:Anion) ([2]; cation:anion 3:1, room temperature): Liquid; Physical Form (Ratios Listed as Cation:Anion) ([2]; cation:anion 4:1, room temperature): Liquid
O=C(O)/C=C/c1ccc(O)c(O)c1 [Caffeic Acid]	Solid at 1:1	–	–	–
CCCC/C=C/CC(=O)O [Trans-3-Octenoic Acid]	Liquid at 1:1, 1:2	Liquid at 1:1, 1:2	–	–
CCCCCCCCCCCC(=O)O [Lauric Acid]	Solid at 1:1, 1:2	Solid at 1:1, 1:2	–	–
C/C=C/C(=O)O [Crotonic Acid]	Liquid at 1:1, 1:2	Liquid at 1:1, 1:2	–	–
C=CCCCCCC(=O)O [Trans-7-Octenoic Acid]	Liquid at 1:1, 1:2	Liquid at 1:1, 1:2	–	–
CCC(=O)O [Propionic Acid]	Liquid at 2:1, 1:1	–	Liquid at 2:1, 1:1	–
O=C(O)CCCC[C@@H]1CCSS1 [(R)-α-Lipoic Acid]	Solid at 2:1, 1:1, 1:2,	Solid at 2:1, 1:1, 1:2,	Solid at 2:1, 1:1, 1:2,	–
C/C(=C\C(=O)O)C(=O)O [Mesaconic Acid]	Solid	–	Liquid	–
C/C=C/C=C/C(=O)O [Sorbic Acid]	Liquid at 1:1, 1:2	Liquid at 1:1, 1:2	–	–
O=C(O)CCCCCC(=O)O [Pimelic Acid]	Liquid at 2:1, 1:1	–	Liquid at 2:1, 1:1	–
COc1cc(C(=O)O)cc(OC)c1O [Syringic Acid]	Solid at 1:1	–	–	–
